In ChEMBL document CHEMBL1240387, “In vitro activity of CEM-101, a new fluoroketolide antibiotic, against Chlamydia trachomatis and Chlamydia (Chlamydophila) pneumoniae” (2010):
In brackets after ≈: the same amount, converted by molar mass.

Key:
[1] = system: Chlamydia trachomatis; assay: Antimicrobial activity against Chlamydia trachomatis after 72 hrs by twofold serial dilution method; type: functional
[2] = system: Chlamydia pneumoniae; assay: Antimicrobial activity against Chlamydophila pneumoniae infected in human Hep2 cells after 72 hrs by twofold serial dilution method; type: functional, HEp-2
[3] = system: Chlamydia pneumoniae; assay: Antimicrobial activity against Chlamydophila pneumoniae infected in human Hep2 cells after 72 hrs by fluorescence assay; type: functional, HEp-2
[4] = system: Chlamydia trachomatis; assay: Antimicrobial activity against Chlamydia trachomatis after 72 hrs by fluorescence assay; type: functional
[5] = system: Mycoplasma genitalium; assay: Antimicrobial activity against Mycoplasma genitalium by microtiter plate reader assay; type: functional; settings: Mycoplasmoides genitalium
[6] = system: Metamycoplasma hominis; assay: Antimicrobial activity against Mycoplasma hominis by microtiter plate reader assay; type: functional
[7] = system: Ureaplasma urealyticum; assay: Antimicrobial activity against Ureaplasma urealyticum by microtiter plate reader assay; type: functional
[8] = system: Neisseria gonorrhoeae; assay: Antimicrobial activity against Neisseria gonorrhoeae by microtiter plate reader assay; type: functional
[9] = system: Mycoplasmoides pneumoniae; assay: Antimicrobial activity against Mycoplasma pneumoniae by microtiter plate reader assay; type: functional

Row | SMILES | MIC50 [1] | MIC90 [1] | MIC50 [2] | MIC90 [2] | MBC90 [3] | MBC90 [4] | MIC [5] | MIC [6] | MIC [7] | MIC [8] | MIC [9]
1 | CC[C@H]1OC(=O)[C@H](C)[C@@H](O[C@H]2C[C@@](C)(OC)[C@@H](O)[C@H](C)O2)[C@H](C)[C@@H](O[C@@H]2O[C@H](C)C[C@H](N(C)C)[C@H]2O)[C@](C)(O)C[C@@H](C)CN(C)[C@H](C)[C@@H](O)[C@]1(C)O [AZITHROMYCIN] | 125 ng/mL (≈ 167 nM) | 125 ng/mL (≈ 167 nM) | 125 ng/mL (≈ 167 nM) | 125 ng/mL (≈ 167 nM) |  |  |  |  |  |  | 
2 | CC[C@H]1OC(=O)[C@H](C)[C@@H](O[C@H]2C[C@@](C)(OC)[C@@H](O)[C@H](C)O2)[C@H](C)[C@@H](O[C@@H]2O[C@H](C)C[C@H](N(C)C)[C@H]2O)[C@](C)(OC)C[C@@H](C)C(=O)[C@H](C)[C@@H](O)[C@]1(C)O [CLARITHROMYCIN] | 60 ng/mL (≈ 80.2 nM) | 60 ng/mL (≈ 80.2 nM) | 60 ng/mL (≈ 80.2 nM) | 60 ng/mL (≈ 80.2 nM) | 60 ng/mL (≈ 80.2 nM) | 60 ng/mL (≈ 80.2 nM) |  |  |  |  | 
3 | C[C@H]1c2cccc(O)c2C(=O)C2=C(O)[C@]3(O)C(=O)C(C(N)=O)=C(O)[C@@H](N(C)C)[C@@H]3[C@@H](O)[C@@H]21.O [DOXYCYCLINE] | 60 ng/mL | 60 ng/mL | 60 ng/mL | 60 ng/mL | 60 ng/mL | 60 ng/mL |  |  |  |  | 
4 | CC[C@H]1OC(=O)[C@H](C)C(=O)[C@H](C)[C@@H](O[C@@H]2O[C@H](C)C[C@H](N(C)C)[C@H]2O)[C@](C)(OC)C[C@@H](C)C(=O)[C@H](C)[C@H]2N(CCCCn3cnc(-c4cccnc4)c3)C(=O)O[C@]12C [TELITHROMYCIN] | 60 ng/mL (≈ 73.9 nM) | 60 ng/mL (≈ 73.9 nM) | 60 ng/mL (≈ 73.9 nM) | 60 ng/mL (≈ 73.9 nM) | 60 ng/mL (≈ 73.9 nM) | 60 ng/mL (≈ 73.9 nM) |  |  |  |  | 
5 | CC[C@H]1OC(=O)[C@@](C)(F)C(=O)[C@H](C)[C@@H](O[C@@H]2O[C@H](C)C[C@H](N(C)C)[C@H]2O)[C@](C)(OC)C[C@@H](C)C(=O)[C@H](C)[C@H]2N(CCCCn3cc(-c4cccc(N)c4)nn3)C(=O)O[C@]12C [SOLITHROMYCIN] | 250 ng/mL (≈ 296 nM) | 250 ng/mL (≈ 296 nM) | 250 ng/mL (≈ 296 nM) | 250 ng/mL (≈ 296 nM) | 250 ng/mL (≈ 296 nM) | 250 ng/mL (≈ 296 nM) | ≤ 0.03 ng/mL | ≤ 0.03 ng/mL | 0.03 ng/mL (≈ 0.0355 nM) | ≤ 250 ng/mL | ≤ 500 ng/mL
